Measurements as given in patent US4438115A, “Compositions and methods for treating diseases in circulatory organs” (Chugai Seiyaku Kabushiki Kaisha, priority 1980, dated 1984).
Where a name gives a salt, the structure may show the parent alone.

Legend:
systemic blood pressure [1] = assay: Reduction of systemic blood pressure (Experiment 2(a)); type: in vivo, beagle (anesthetized); details: intravenous; for inhibition in vivo at 0.025 mg/kg: Canis lupus familiaris, Table 2, read-out: Average percent reduction in blood pressure; for Average low pressure retention time: Table 3
Procedure: A beagle was anesthetized by intravenous injection of sodium pentobarbital and under artificial respiration an incision was made in the chest.
1. Systemic blood pressure (SBP): The SBP was measured by a pressure transducer that was connected to a catheter inserted into the right femoral artery.

heart rate = assay: Change in heart rate (Experiment 2(b)); type: in vivo, beagle (anesthetized); details: for Percent change in heart rate: Table 4, Experiment 2; for effect on heart rate (time course): in words
Procedure: A beagle was anesthetized by intravenous injection of sodium pentobarbital and under artificial respiration an incision was made in the chest. The various actions of Compounds 1, 2, 3, 5 and 7 of the present invention were checked by the following procedures:
2. Heart rate (HR): The HR was measured by a cardiotachometer using the pulse wave of blood pressure as trigger pulse.
As for the compounds of the present invention, a temporary increase was followed by a gradual decrease which started almost at the same time when a second phase reduction in blood pressure occurred (see FIG. 1).

[2] = Acute toxicity, oral administration to rats for fourteen consecutive days; type: in vivo, male SD strain rats; details: 400 mg/Kg, as hydrochloride, male SD rats
Procedure: The acute toxicity of Compounds Preparation Nos. 1 to 15 was examined by the oral administration of them to male SD strain rats (five rats per group) for fourteen consecutive days. All compounds had low toxicity and none supressed weight gain. No rat died upon administration of Compound 1 or 2 (both as hydrochloride) in a dose of 400 mg/Kg.

blood pressure = assay: Blood pressure in unanesthetized SHR rats (Experiment 4); type: in vivo; details: oral, 10 mg/Kg; for blood pressure after dosing: 180±5.0 mmHg just before administration
Procedure: Unanesthetized SHR rats (five rats per group) were administered orally 10 mg/Kg of Compound 1.

systemic blood pressure [3] = assay: Neurogenic hypertension by artery obstruction/stricture (Experiment 3); type: in vivo, beagle (hypertensive); details: intravenous, 25 μg/Kg; FIG. 2, FIG. 3
Procedure: Hypertension was induced in a beagle by exciting the sympathetic nerve due to an obstruction of the bilateral vertebral artery and right common carotid artery, as well as a stricture of the left common carotid artery. The beagle was treated intravenously with 25 μg/Kg of Compounds 1 and 2.

Structure (SMILES)	Percent change in heart rate (heart rate) [%]	inhibition in vivo at 0.025 mg/kg (systemic blood pressure [1]; 25 μg/kg) [%]	Average low pressure retention time (systemic blood pressure [1]; 25 μg/kg) [min]	change in systemic blood pressure (time course, FIG. 1) (systemic blood pressure [1]; 25 μg/kg, in words)	further results
NNc1nncc2ccccc12 [A, hydralazine hydrochloride, reference compound]					significant reduction in blood pressure (systemic blood pressure [1]; 25 μg/Kg, in words): did not exhibit significant reduction in blood pressure
COc1ccccc1N1CCN(CCCCCO)CC1 [B, reference compound]	9.9	16.1	15.0		
COc1ccccc1N1CCN(CCCCCCO)CC1 [C, reference compound]	8.1	12.6	14.4		
CCOC(=O)CCCCCCN1CCN(c2ccccc2OC)CC1 [Compound 1, 1-(6-ethoxycarbonylhexyl)-4-(o-methoxyphenyl)piperazine]	-9.6	25.5	47.3	the initial temporary reduction was followed by a reduction in the second phase, and the systemic blood pressure was maintained low thereafter	deaths upon administration [2]: No rat died; blood pressure after dosing (blood pressure; 1 h): 127±11.6 mmHg; blood pressure after dosing (blood pressure; 2 h): 137±7.6 mmHg; duration of reduced blood pressure (blood pressure; in words): maintained at the reduced level for a satisfactorily long time; period of maintained low blood pressure compared with the others (systemic blood pressure [1]; 25 μg/kg, in words): maintained the blood pressure at low level for a longer period than did the others; extension of low pressure retention time, hypertensive vs normal beagle (systemic blood pressure [3]): more effective; reduction of heart rate, hypertensive vs normal beagle (systemic blood pressure [3]): more effective; reduction of systemic blood pressure, hypertensive vs normal beagle (systemic blood pressure [3]): more effective
CCOC(=O)CCCCCN1CCN(c2ccccc2OC)CC1 [Compound 2, 1-(5-ethoxycarbonylpentyl)-4-(o-methoxyphenyl)piperazine]	-1.6	22.4	20.0	the initial temporary reduction was followed by a reduction in the second phase, and the systemic blood pressure was maintained low thereafter	deaths upon administration [2]: No rat died; extension of low pressure retention time, hypertensive vs normal beagle (systemic blood pressure [3]): more effective; reduction of heart rate, hypertensive vs normal beagle (systemic blood pressure [3]): more effective; reduction of systemic blood pressure, hypertensive vs normal beagle (systemic blood pressure [3]): more effective
CCOC(=O)CCCCCCN1CCN(c2ccccc2OC(C)C)CC1 [Compound 3, 1-(6-ethoxycarbonylhexyl)-4-(o-isopropyloxyphenyl)piperazine]	-4.0	22.1	22.4		
COC(=O)CCCCCCN1CCN(c2ccccc2OC)CC1 [Compound 5, 1-(6-methoxycarbonylhexyl)-4-(o-methoxyphenyl)piperazine]	-2.2	23.1	18.6		
CCOC(=O)CCCCN1CCN(c2ccccc2OC)CC1 [Compound 7, 1-(4-ethoxycarbonylbutyl)-4-(o-methoxyphenyl)piperazine]	13.2	19.1	13.4	the initial temporary reduction was followed by a reduction in the second phase, and the systemic blood pressure was maintained low thereafter	
COc1ccccc1N1CCN(CCCCCCCO)CC1 [D, reference compound]	-9.1	14.3	22.5		
CCOC(=O)CCN1CCN(c2ccccc2OC)CC1 [E, reference compound]	16.8	15.1	6.8	only temporary	effect on heart rate (time course) (heart rate): first increased the heart rate and thereafter the increased heart rate gradually returned to the normal level
CCOC(=O)CCCN1CCN(c2ccccc2OC)CC1 [F, reference compound]	11.2	15.2	8.8	only temporary	effect on heart rate (time course) (heart rate): first increased the heart rate and thereafter the increased heart rate gradually returned to the normal level
